Measurements published in patent US10711002B2, “Purine compounds and method for the treatment of cancer” (THE ROYAL INSTITUTION FOR THE ADVANCEMENT OF …, priority 2016, dated 2020).

What was measured:
BT20 cells = assay: Clonogenic assay; format: cell-based; conditions: BT20, 6 days of incubation
Experimental: (§1) Cancer cell lines: MDA-MB-231, BT-20, Panc-1, OVCAR-3, 4T1 and RENCA were obtained from ATCC. Epithelial breast adenocarcinoma cell line PMC42-LA, were kindly provided by Dr. Ackland. Mia-Paca cells were kindly provided by Dr. George Zogopoulos. All cancer cell lines were cultured in RPMI1640× with 10% fetal bovine serum with 1% penicillin/streptomycin, and maintained at 37° C. in 5% atmosphere of CO2. In the case of growth factor stimulation, cells were serum starved for no longer than 12H, and then stimulated with 20 ng/ml EGF for 40 minutes.
(§2) Clonogenic assays were also performed using standard techniques as previously described. Briefly, cells were harvested from exponential-phase cultures, counted and plated at densities of 200 cells per well of a 12-well plate. Twenty-four hours after plating, the compounds were delivered once at the mentioned concentration. Negative control was carried out by treating the cells with DMSO. After 6 days of incubation in the presence of the compounds, the cells were stained with 0.5% crystal violet in absolute ethanol, and colonies were counted using the machine GelCount™ Tumor Colony Counter from Oxford Optronix Ltd. Each experiment was done in triplicates.

OVCAR-3 cells = assay: Clonogenic assay; format: cell-based; conditions: OVCAR-3, 6 days of incubation
Experimental: as §1, §2

Panc-1 cells = assay: Clonogenic assay; format: cell-based; conditions: Panc-1, 6 days of incubation
Experimental: as §1, §2

[1] = tested on: breast cancer metastasis to the lung; assay: In vivo invasive breast cancer models, metastasis to the lung; conditions: 30 mg/kg and below given bi-weekly for 3 weeks
Text: These kinases are directly involved in pathways controlling cell differentiation programs, metastasis signaling, as well as EMT and CSC programming and their overexpression was reported to predict decreased metastasis-free survival.
In vivo studies were approved by McGill Animal Care Committee. Cells growing in exponential phase of growth (1×10^6 cells/mouse) were transplanted into the mammary fat pad of female SCID (MDA231/M) or Balb/c (4T1) mice. Mia-PaCa cells and RENCA cells were implanted subcutaneously in SCID or Balb/c mice respectively. When primary tumors became palpable mice were randomized and blindly assigned treatment groups. […] Control mice received the vehicle alone (1% DMSO in physiologic solution). […] Tumor size was measured using a caliper. At the study termination (60-90 days) primary tumors were excised and weighted. The lungs were fixed in 10% Bouin's fixative and lung surface metastases were counted using a stereomicroscope.

[2] = tested on: 4T1/M (triple-negative breast cancer); assay: In vivo distant metastasis and primary tumor growth, orthotopic transplant; conditions: 4T1/M in Balb/c mice, PO
Text: (§3) In vivo studies were approved by McGill Animal Care Committee. Cells growing in exponential phase of growth (1×10^6 cells/mouse) were transplanted into the mammary fat pad of female SCID (MDA231/M) or Balb/c (4T1) mice. Mia-PaCa cells and RENCA cells were implanted subcutaneously in SCID or Balb/c mice respectively. When primary tumors became palpable mice were randomized and blindly assigned treatment groups. Treatment was given PO for 4 cycles (3 times a week: day 1, day 3, day 5) (n=8-10 mice per condition). Control mice received the vehicle alone (1% DMSO in physiologic solution). […] Tumor size was measured using a caliper. At the study termination (60-90 days) primary tumors were excised and weighted. The lungs were fixed in 10% Bouin's fixative and lung surface metastases were counted using a stereomicroscope.

[3] = tested on: MDA-231/M (human triple-negative breast cancer); assay: as above; conditions: MDA-231/M in SCID mice, PO
Text: as §3

[4] = tested on: Mia-PaCa (human pancreatic carcinoma); assay: In vivo primary tumor growth, subcutaneous implant; set-up: species or system SCID mice
Text: as §3

Pilot toxicity study = format: in vivo, mice; conditions: doses even superior to 30 mg/kg, PO, 3 times a week, 4 cycles
Text: as §3

PMC42-LA cells = assay: Organoid differentiation on matrigel; format: cell-based
Experimental: as §1
In order to confirm that the reduction of CSC markers by Compound 1 correlates with loss of stem-cell properties, the effect of Compound 1 was investigated on the differentiation capability of a well-established PMC42-LA breast cell line. PMC42-LA cells treated with the appropriate concentrations of Compound 1 were also plated on Compound 1 containing matrigel and allowed to form organoids. Since the defining characteristic of stem cells is pluripotency—the capacity of a cell to differentiate into varying progenies, then Compound 1 may inhibit the differentiation process in those PMC42-LA cells. In the absence of drug treatment, PMC42-LA cells undergo differentiation into secretory organoids when cultured on matrigel.

BT-20 cells = assay: Tumorsphere formation; format: cell-based; conditions: BT-20, 1 μM for 72H, reseeded in suspension
Experimental: as §1
(§4) After treatment with 1 μM Compound 1 for 72H, MDA-MB-231 and BT-20 cells were digested with 0.25% trypsin and reseeded at 2.5×10^4 cells/ml in 60 mm Ultralow Adherence plates (Corning) in DMEM/F12 supplemented with 5 ug/ml human insulin, 20 ng/ml human epidermal growth factor, 0.5 ug/ml hydrocortisone and 2% B27 (Invitrogen). Tumorspheres were then visualized (FIG. 1A) and then quantified (FIG. 1B). An important feature of cancer stem-like cells is their enhanced tumorsphere forming potential when grown in suspension. The tumorsphere forming capacity of Compound 1-treated MDA-MB-231 and BT-20 were analyzed in FIG. 1A. Consistent with previous characterization of these cells, in the absence of Compound 1, both MDA-MB-231 and BT-20 are capable of propagating as small individual tumorspheres that survive passaging.

MDA-MB-231 cells = assay: Tumorsphere formation; format: cell-based; conditions: MDA-MB-231, 1 μM for 72H, reseeded in suspension
Experimental: as §1, §4

cell cycle = assay: Cell cycle analysis (FACS, propidium iodide staining); format: cell-based
Experimental: Cell cycles were synchronized prior to treatment through overnight serum deprivation. After treatment, cells were fixed and permeabilized using BD Cytofix/Cytoperm reagent (BD Bioscience), washed with PBS, and treated with 100 μg/ml Bovine Pancreas RNase A (US Biological). Cells were then stained with 25 μg/ml propidium iodide (Sigma) for 15 minutes and then immediately analyzed by flow cytometry using BD FACScalibur. The data was analyzed using FCS Express software.
It was observed during Compound 1 treatment that the targeting effect against stem-like cells is visibly associated with morphological changes resembling cell polyploidization, the accumulation of multiple DNA copies in a cell. This biological phenomenon sometimes occur as part of cell differentiation and is often associated with disruption of normal cell cycle. The identification of Aurora kinases (described below) as targets of Compound 1 supports the possible impact on cell division. Therefore the effect of Compound 1 on cell cycle using FACS analysis to measure propidium iodide staining was investigated.

SMILES | colony forming ability (BT20 cells) | colony forming ability (OVCAR-3 cells) | colony forming ability (Panc-1 cells) | inhibition of breast cancer metastasis to the lung [1] | Primary tumor weight ([2]; at study termination) | Inhibition of distant metastasis (% control) ([2]; lung surface metastases) | Primary tumor weight ([3]; at study termination) | Inhibition of distant metastasis (% control) ([3]; lung surface metastases) | Primary tumor weight ([4]; Mia-PaCa subcutaneous in SCID mice, PO, at study termination) | pancreatic cancer cell (Mia-PaCa) growth in vivo ([4]; mouse, in vivo) | body weight loss (Pilot toxicity study) | toxicity (Pilot toxicity study) | differentiation and expansion of colonies into larger organoid structures (PMC42-LA cells) | number of overall colonies (PMC42-LA cells) | viable tumorspheres (BT-20 cells) | viable tumorspheres (MDA-MB-231 cells) | accumulation of polyploidic cells (cell cycle)
O=c1c2ccccc2[se]n1-c1nc(N[C@H]2CC[Se]C2)c2nc[nH]c2n1 [Compound 4] | Significant reduction | Significant reduction | Significant reduction | more than 50% | 0.5 ± 0.10 g | 75-82% | 0.2 ± 0.08 g | 45-61% | 0.6 ± 0.14 g | able to inhibit | no body weight loss | no apparent toxicity |  |  |  |  | 
O=c1c2ccccc2[se]n1-c1nc(NC2CCCCC2)c2nc[nH]c2n1 [Compound 1] |  |  |  |  |  |  |  |  |  |  |  |  | visibly prevented the differentiation and expansion of these colonies into larger organoid structures | did not reduce the number of overall colonies | dramatic reduction in viable tumorspheres | dramatic reduction in viable tumorspheres | induces a dose-dependent accumulation of polyploidic cells
